Our source for the EC50 values is patent US12600727B2, “Treatment of infections of toxoplasma gondii and closely related parasites” (WASHINGTON UNIVERSITY, priority 2018, dated 2026).

In one assay the test system is Neospora caninum parasites (NC-1 strain). Put plainly: N. caninum (NC-1, lac-Z) growth inhibition in HFF, β-Gal assay. Type of assay: cell-based. To be noted: 72 h. The protocol:
Neospora caninum parasites (NC-1 strain) expressing a lac-Z transgene (1) were serially passaged as tachyzoites in human foreskin fibroblasts cultured in DMEM supplemented with 10% fetal bovine serum (FBS), glutamine (10 mM) and gentamycin (10 μg/mL). Mature cultures were scraped, syringe passed using a 25 g needle to release parasites, filtered through a 3 micron polycarbonate filter to remove host cell debris and counted prior to each assay. All cultures were maintained in a 37° C. incubator with 5% CO2 and were verified mycoplasma free using the e-Myco plus Mycoplasma PCR detection kit (Boca Scientific).
Compounds were prepared as 10 mM stock in 100% DMSO. Pyrimethamine (positive control) and DMSO were included as controls in all plates and all replicates. The EC50 values were determined using a 10-point dose response curve using a 2-fold dilution series from 5.0 μM to 0.01 μM across the plate. Experiments were conducted in 96-well plates containing confluent HFF cells. Each assay plate was inoculated with 1×10^3 parasites (100 μL) containing 100 μL of 2× compound and incubated for 72 h prior to preparation for the j-Gal assay as described in Seeber, F. et al., Gene 169 (1996): 39-45, hereby incorporated by reference in its entirety and particularly in relation to the β-Gal assay protocol. Briefly, culture medium was replaced, wells rinsed with 200 μL of PBS followed by incubation with 50 μL of lysis buffer (100 mM HEPES, 1 mM MgSO4, 1% Triton X-100, 5 mM DTT) for 10 min at 50° C.
EC50 values determined from 10-point dose response curve (5 μM-0.01 μM) and presented as the average of three biological replicates. Linear regression and dose response inhibition (log ([compound]) vs normalized response-variable slope) were performed with Prism 8 for Mac (Graphpad Software, Inc.) and both the fits and data are shown in FIG. 1. Values represent the average of three biological replicates each with two internal replicates and are plotted as mean±S.E.M.
As to `CCc1nc(N)nc(N)c1-c1ccc(Cl)cc1` [Pyrimethamine (Pyr), Pyrimethamine, reference compound], the concentration giving a half-maximal response (EC50) is 0.263 µM.

Still in this assay, the particulars now being: N. caninum NC-1 lac-Z, 72 h, 10-point dose response 5 μM-0.01 μM, average of three biological replicates, read-out: EC50.
For the compound `COc1ccc(NC(=O)N2CCCCN3C[C@H](c4ccc(C#Cc5ccccc5)cc4)[C@@H]3C2)cc1` [Compound 16], the EC50 came out at 0.193 µM.

Take `COc1ccc(NC(=O)N2C[C@H](O)[C@H](O)CN3[C@H](CN(C)C)[C@H](c4ccc(C#Cc5ccccc5)cc4)[C@@H]3C2)cc1` [Compound 8, (3R,4S,8R,9S,10S)-10-((dimethylamino)methyl)-3,4-dihydroxy-N-(4-methoxyphenyl)-9-(4-(phenylethynyl)phenyl)-1,6-diazabicyclo[6.2.0]decane-6-carboxamide]: the EC50 worked out at 0.03 µM.

With `COc1ccc(NC(=O)N2CCCCCN3[C@H](CO)[C@H](c4ccc(C#Cc5ccccc5)cc4)[C@@H]3C2)cc1` [Compound 20, (9R,10R,11S)-11-(hydroxymethyl)-N-(4-methoxyphenyl)-10-(4-(phenylethynyl)phenyl)-1,7-diazabicyclo[7.2.0]undecane-7-carboxamide], the concentration for a half-maximal effect (EC50) is 0.157 µM.

Regarding `COc1ccc(NC(=O)N2CCCCN3[C@@H](C2)[C@@H](c2ccc(C#Cc4ccccc4)cc2)[C@@H]3CN(C)S(C)(=O)=O)cc1` [Compound 6, (8R,9R,10R)-N-(4-methoxyphenyl)-10-((N-methylmethylsulfonamido)methyl)-9-(4-(phenylethynyl)phenyl)-1,6-diazabicyclo[6.2.0]decane-6-carboxamide], the EC50 was 0.06 µM.

Another assay concerns Toxoplasma gondii tachyzoites (ME49-FLUC, type 2). As to the kind of experiment: T. gondii ME49-FLUC tachyzoite growth inhibition in HFF, luciferase assay. Type of assay: cell-based. To be noted: T. gondii ME49-FLUC (type 2) tachyzoites in HFF. Here is the method: Toxoplasma gondii tachyzoites (ME49-FLUC, type 2) (27) were serially passaged in human foreskin fibroblasts (HFF) cultured in complete DMEM medium (DMEM supplemented with 10% fetal bovine serum (FBS), glutamine (10 mM) and gentamycin (10 μg/mL)). For each assay described, infected monolayers were scraped, needle passed (23 ga), and parasites were separated from host cell debris using a three (3) micron pore polycarbonate filter. HeLa cells were cultured in MEM media that contained 10% FBS, 4 mM L-glutamine and 10 mM HEPES solution. Cell culture and assays were conducted using a 37° C. incubator with 5% CO2. Cell cultures were negative for mycoplasma, as determined using the e-Myco plus kit (Intron Biotechnology).
White, clear bottom 96-well assay plates were set up as described above with the following modifications. Only the inner 60 wells were used for the assay in order to reduce variability that results from evaporation during incubation. Dilution of compound stock is as described above, with all wells containing a final concentration of 0.1% DMSO. DMSO (vehicle control) and pyrimethamine (2.5 μM, positive control) were included in the outside wells of all plates as controls. Liquid handling (serial dilutions, compound dilutions, cell feeding, plate-to-plate transfers, etc.) utilized a Dual Pod Biomek FX. Luciferase assays were performed using the integrated and automated platform (Beckman Coulter). The SAMI EX software was used to design and execute the screening assay and enabled efficient and uniform assay execution across all the assay plates.
Consider `O=C(Nc1cccc(F)c1)N1CCCCN2[C@H](CO)[C@H](c3ccc(C#Cc4cccnc4)cc3)[C@@H]2C1` [Compound 10, (8R,9R,10S)-N-(3-fluorophenyl)-10-(hydroxymethyl)-9-(4-(pyridin-3-ylethynyl)phenyl)-1,6-diazabicyclo[6.2.0]decane-6-carboxamide], for which the EC50 was 0.493 µM.

`COc1ccc(NC(=O)N2CCCCN3[C@H](CO)[C@H](c4ccc(C#Cc5ccccc5)cc4)[C@@H]3C2)cc1` [Compound 18, (8R,9R,10S)-10-(hydroxymethyl)-N-(4-methoxyphenyl)-9-(4-(phenylethynyl)phenyl)-1,6-diazabicyclo[6.2.0]decane-6-carboxamide]: the EC50 came to 0.0289 µM.

Compound `COc1ccc(NC(=O)N2CCCCN3[C@@H](CO)[C@H](c4ccc(C#Cc5ccccn5)cc4)[C@@H]3C2)cc1` [Compound 13, (8R,9R,10R)-10-(hydroxymethyl)-N-(4-methoxyphenyl)-9-(4-(pyridin-2-ylethynyl)phenyl)-1,6-diazabicyclo[6.2.0]decane-6-carboxamide] showed an EC50 of 0.646 µM.

In the case of `COC[C@@H]1[C@H](c2ccc(C#Cc3ccccc3)cc2)[C@@H]2CN(C(=O)Nc3ccc(OC)cc3)CCCCN12` [Compound 9, (8R,9R,10S)-10-(methoxymethyl)-N-(4-methoxyphenyl)-9-(4-(phenylethynyl)phenyl)-1,6-diazabicyclo[6.2.0]decane-6-carboxamide], the midpoint of the response, the EC50, lay at 0.0504 µM.

Regarding `COc1ccc(NC(=O)N2CCCCN3[C@H](CN4CCN(C)CC4)[C@H](c4ccc(C#Cc5ccccc5)cc4)[C@@H]3C2)cc1` [Compound 1, (8R,9S,10S)-N-(4-methoxyphenyl)-10-((4-methylpiperazin-1-yl)methyl)-9-(4-(phenylethynyl)phenyl)-1,6-diazabicyclo[6.2.0]decane-6-carboxamide], the concentration for a half-maximal effect (EC50) is 0.425 µM.

Consider `COc1ccc(NC(=O)N2CCCCN3C[C@H](c4ccc(C#Cc5ccccc5)cc4)[C@@H]3C2)cc1` [Compound 16], for which the EC50 amounted to 0.077 µM.

Take `COc1ccc(NC(=O)N2CCCCN3[C@H](CO)[C@H](c4ccc(C#Cc5ccccc5C#N)cc4)[C@@H]3C2)cc1` [Compound 12, (8R,9R,10S)-9-(4-((2-cyanophenyl)ethynyl)phenyl)-10-(hydroxymethyl)-N-(4-methoxyphenyl)-1,6-diazabicyclo[6.2.0]decane-6-carboxamide]: the EC50 is 0.213 µM.

Consider `COc1ccc(NC(=O)N2CCCN3[C@H](CO)[C@H](c4ccc(C#Cc5ccccc5)cc4)[C@@H]3C2)cc1` [Compound 21, (7R,8R,9S)-9-(hydroxymethyl)-N-(4-methoxyphenyl)-8-(4-(phenylethynyl)phenyl)-1,5-diazabicyclo[5.2.0]nonane-5-carboxamide], for which the EC50 is 1.75 µM.

The compound `OC[C@@H]1[C@H](c2ccc(C#Cc3ccccc3)cc2)[C@@H]2CN(c3nc4ccccc4s3)CCCCN12` [Compound 19, ((8R,9R,10S)-6-(benzo[d]thiazol-2-yl)-9-(4-(phenylethynyl)phenyl)-1,6-diazabicyclo[6.2.0]decan-10-yl)methanol] registered an EC50 of 3.94 µM.

With `COc1ccc(NC(=O)N2CCCCN3[C@H](CN(C)CCF)[C@H](c4ccc(C#Cc5ccccc5)cc4)[C@@H]3C2)cc1` [Compound 5, (8R,9S,10S)-10-(((2-fluoroethyl)(methyl)amino)methyl)-N-(4-methoxyphenyl)-9-(4-(phenylethynyl)phenyl)-1,6-diazabicyclo[6.2.0]decane-6-carboxamide], the EC50 is 0.0895 µM.

Compound `COc1ccc(NC(=O)N2C[C@H](O)[C@H](O)CN3[C@H](CN(C)C)[C@H](c4ccc(C#Cc5ccccc5)cc4)[C@@H]3C2)cc1` [Compound 8, (3R,4S,8R,9S,10S)-10-((dimethylamino)methyl)-3,4-dihydroxy-N-(4-methoxyphenyl)-9-(4-(phenylethynyl)phenyl)-1,6-diazabicyclo[6.2.0]decane-6-carboxamide] came in with an EC50 of 0.0393 µM.

`COc1ccc(NC(=O)N2CCCCN3[C@H](CO)[C@H](c4ccc(C#CC5CC5)cc4)[C@@H]3C2)cc1` [Compound 7, (8R,9R,10S)-9-(4-(cyclopropylethynyl)phenyl)-10-(hydroxymethyl)-N-(4-methoxyphenyl)-1,6-diazabicyclo[6.2.0]decane-6-carboxamide] gave an EC50 of 1.61 µM.

With `COc1ccc(NC(=O)N2CCCCN3[C@H](CN(C)S(C)(=O)=O)[C@H](c4ccc(C#Cc5ccccc5)cc4)[C@@H]3C2)cc1` [Compound 4, (8R,9R,10S)-N-(4-methoxyphenyl)-10-((N-methylmethylsulfonamido)methyl)-9-(4-(phenylethynyl)phenyl)-1,6-diazabicyclo[6.2.0]decane-6-carboxamide], the EC50 was determined as 0.0348 µM.

Compound `O=C(NC1CCC1)N1CCCCN2[C@H](CO)[C@H](c3ccc(C#Cc4ccccc4)cc3)[C@@H]2C1` [Compound 3, (8R,9R,10S)-N-cyclobutyl-10-(hydroxymethyl)-9-(4-(phenylethynyl)phenyl)-1,6-diazabicyclo[6.2.0]decane-6-carboxamide] yielded an EC50 of 2.58 µM.

In turn, `COc1ccc(NC(=O)N2CCCCN3[C@H](CO)[C@H](c4ccc(C#Cc5ccccc5)cc4)[C@]3(CO)C2)cc1` [Compound 11, (8R,9S,10S)-8,10-bis(hydroxymethyl)-N-(4-methoxyphenyl)-9-(4-(phenylethynyl)phenyl)-1,6-diazabicyclo[6.2.0]decane-6-carboxamide] registered an EC50 of 1.69 µM.

`COc1ccc(NC(=O)N2CCCCCN3[C@H](CO)[C@H](c4ccc(C#Cc5ccccc5)cc4)[C@@H]3C2)cc1` [Compound 20, (9R,10R,11S)-11-(hydroxymethyl)-N-(4-methoxyphenyl)-10-(4-(phenylethynyl)phenyl)-1,7-diazabicyclo[7.2.0]undecane-7-carboxamide]: the 50% effective concentration (EC50) stood at 0.169 µM.

With `COc1ccc(NC(=O)N2CCCCN3[C@H](CN4CCC4)[C@H](c4ccc(C#Cc5ccccc5)cc4)[C@@H]3C2)cc1` [Compound 17, (8R,9S,10S)-10-(azetidin-1-ylmethyl)-N-(4-methoxyphenyl)-9-(4-(phenylethynyl)phenyl)-1,6-diazabicyclo[6.2.0]decane-6-carboxamide], the half-maximal effective concentration (EC50) came to 0.442 µM.

For `COc1ccc(NC(=O)N2CCCCN3[C@@H](C2)[C@@H](c2ccc(C#Cc4ccccc4)cc2)[C@@H]3CN(C)S(C)(=O)=O)cc1` [Compound 6, (8R,9R,10R)-N-(4-methoxyphenyl)-10-((N-methylmethylsulfonamido)methyl)-9-(4-(phenylethynyl)phenyl)-1,6-diazabicyclo[6.2.0]decane-6-carboxamide], the EC50 was found to be 0.04 µM.

`COc1ccc(NC(=O)N2CCCCN3[C@H](COCCC(=O)O)[C@H](c4ccc(C#Cc5ccccc5)cc4)[C@@H]3C2)cc1` [Compound 2, 3-(((8R,9R,10S)-6-((4-methoxyphenyl)carbamoyl)-9-(4-(phenylethynyl)phenyl)-1,6-diazabicyclo[6.2.0]decan-10-yl)methoxy)propanoic acid] had an EC50 of 0.0643 µM.
